In ChEMBL document CHEMBL1155829, “Synthesis and cytotoxic, anti-inflammatory, and anti-oxidant activities of 2',5'-dialkoxylchalcones as cancer chemopreventive agents” (Bioorg Med Chem, 2008):
pIC50: −log10 of the molar value. Calls of active or inactive are those of the source. No cut-off for these calls is given here.

Tests used:
[1] = tested on: HT-29; experiment: Cytotoxicity against human HT29 cells by MTT assay; assay type: functional, cell-based
[2] = tested on: MCF7; experiment: Cytotoxicity against human MCF7 cells by MTT assay; assay type: functional, cell-based
[3] = Cytotoxicity against human Hep3B cells by MTT assay; assay type: functional, cell-based, Hep 3B2
[4] = tested on: RAW264.7; experiment: Antiinflammatory activity against mouse RAW264.7 cells assessed as inhibition of LPS-induced nitric oxide production; assay type: functional, cell-based
[5] = Antioxidant activity assessed as inhibition of superoxide radical-induced DNA damage of pBR322 at 300 uM after 20 mins by gel electrophoresis; assay type: functional
[6] = tested on: Radical scavenging activity; experiment: Antioxidant activity assessed as DPPH radical scavenging activity; assay type: functional
[7] = target: Xanthine dehydrogenase/oxidase (Homo sapiens, UniProt P47989); experiment: Inhibition of xanthine oxidase
[8] = tested on: A549; experiment: Cytotoxicity against human A549 cells by MTT assay; assay type: functional, cell-based
[9] = tested on: A549; experiment: Cell cycle arrest in human A549 cells assessed as accumulation at G2/M phase at 10 uM after 24 hrs by flow cytometry; assay type: functional
[10] = tested on: A549; experiment: Cell cycle arrest in human A549 cells assessed as accumulation at S phase at 10 uM after 24 hrs by flow cytometry; assay type: functional
[11] = tested on: A549; experiment: Cell cycle arrest in human A549 cells assessed as accumulation at G1 phase at 0.1 uM after 24 hrs by flow cytometry; assay type: functional
[12] = tested on: A549; experiment: Cell cycle arrest in human A549 cells assessed as accumulation at S phase at 0.1 uM after 24 hrs by flow cytometry; assay type: functional
[13] = tested on: A549; experiment: Cell cycle arrest in human A549 cells assessed as accumulation at G1 phase at 0.03 uM after 24 hrs by flow cytometry; assay type: functional
[14] = tested on: A549; experiment: Cell cycle arrest in human A549 cells assessed as accumulation at G2/M phase at 0.03 uM after 24 hrs by flow cytometry; assay type: functional
[15] = tested on: A549; experiment: Cell cycle arrest in human A549 cells assessed as accumulation at G1 phase at 10 uM after 24 hrs by flow cytometry; assay type: functional
[16] = Inhibition of tubulin polymerization
[17] = tested on: A549; experiment: Cell cycle arrest in human A549 cells assessed as accumulation at G2/M phase at 0.1 uM after 24 hrs by flow cytometry; assay type: functional
[18] = tested on: A549; experiment: Cell cycle arrest in human A549 cells assessed as accumulation at S phase at 0.03 uM after 24 hrs by flow cytometry; assay type: functional
[19] = tested on: RAW264.7; experiment: Antiinflammatory activity against mouse RAW264.7 cells assessed as inhibition of LPS-induced TNFalpha formation; assay type: functional, cell-based

Xanthine dehydrogenase/oxidase, sequence (P47989 whole entry): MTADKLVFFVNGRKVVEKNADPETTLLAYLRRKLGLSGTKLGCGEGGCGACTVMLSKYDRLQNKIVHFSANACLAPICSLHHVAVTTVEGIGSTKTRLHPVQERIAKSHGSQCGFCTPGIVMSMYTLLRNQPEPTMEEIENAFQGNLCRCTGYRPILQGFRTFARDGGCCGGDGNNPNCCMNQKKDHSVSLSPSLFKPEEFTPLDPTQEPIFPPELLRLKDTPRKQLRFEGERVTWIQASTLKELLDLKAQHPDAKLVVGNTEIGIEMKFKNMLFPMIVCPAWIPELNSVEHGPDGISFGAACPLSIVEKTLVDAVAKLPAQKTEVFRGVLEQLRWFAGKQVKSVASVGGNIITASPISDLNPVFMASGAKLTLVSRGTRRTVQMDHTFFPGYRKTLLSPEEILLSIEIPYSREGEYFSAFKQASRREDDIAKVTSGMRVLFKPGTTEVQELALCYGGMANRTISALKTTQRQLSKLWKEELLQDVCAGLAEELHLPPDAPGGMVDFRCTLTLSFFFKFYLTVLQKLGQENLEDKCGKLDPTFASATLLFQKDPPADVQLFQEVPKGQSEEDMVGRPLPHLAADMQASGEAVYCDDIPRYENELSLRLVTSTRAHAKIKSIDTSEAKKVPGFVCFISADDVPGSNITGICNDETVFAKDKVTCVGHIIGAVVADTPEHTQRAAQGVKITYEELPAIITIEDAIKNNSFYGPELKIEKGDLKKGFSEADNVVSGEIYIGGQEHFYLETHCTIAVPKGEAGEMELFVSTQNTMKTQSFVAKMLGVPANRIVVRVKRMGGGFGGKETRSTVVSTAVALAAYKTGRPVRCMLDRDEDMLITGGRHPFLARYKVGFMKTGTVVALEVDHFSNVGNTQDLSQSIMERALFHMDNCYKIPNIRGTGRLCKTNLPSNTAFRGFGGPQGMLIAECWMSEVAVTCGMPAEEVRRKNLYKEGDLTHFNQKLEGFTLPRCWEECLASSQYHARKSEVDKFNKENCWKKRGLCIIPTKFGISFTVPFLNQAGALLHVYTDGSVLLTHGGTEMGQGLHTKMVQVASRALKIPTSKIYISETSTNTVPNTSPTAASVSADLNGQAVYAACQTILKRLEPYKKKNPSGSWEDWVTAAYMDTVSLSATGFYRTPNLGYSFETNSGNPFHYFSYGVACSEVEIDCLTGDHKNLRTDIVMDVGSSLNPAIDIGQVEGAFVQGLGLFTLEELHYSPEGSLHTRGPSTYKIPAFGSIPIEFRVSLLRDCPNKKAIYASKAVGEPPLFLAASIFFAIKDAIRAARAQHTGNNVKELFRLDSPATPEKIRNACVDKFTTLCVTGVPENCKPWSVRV

Row | Compound | pIC50 [1] | pIC50 [2] | pIC50 [3] | further results
1 | Cc1ccc(/C=C/C(=O)c2cc(OC(C)C)ccc2O)s1 | 4.52 | 4.81 | 4.09 | –
2 | CCOc1ccc(OCC)c(C(=O)/C=C/c2ccc(C)s2)c1 | 5.49 | 5.85 | 4.50 | pIC50 [4]: 4.78; Activity [5]: Active; Activity [6]: inactive; pIC50 [7]: 4.67; pIC50 [8]: 5.36
3 | Cc1ccc(/C=C/C(=O)c2ccc(O)c(O)c2O)s1 | 4.44 | – | – | –
4 | CCOc1ccc(O)c(C(=O)/C=C/c2ccc(C)s2)c1 | 4.36 | 4.63 | 4.04 | –
5 | Cc1ccc(/C=C/C(=O)c2cc(OCC(C)C)ccc2O)s1 | 4.51 | 4.89 | 4.26 | –
6 | CCCOc1ccc(O)c(C(=O)/C=C/c2ccc(C)s2)c1 | 3.90 | 4.67 | 4.63 | –
7 | COc1ccc(O)c(C(=O)/C=C/c2ccc(C)s2)c1 | 4.15 | 4.46 | 4.06 | –
8 | O=c1[nH]cc(F)c(=O)[nH]1 [FLUOROURACIL] | – | – | 6.22 | –
9 | CCCCCOc1ccc(O)c(C(=O)/C=C/c2ccc(C)s2)c1 | 4.06 | 4.32 | 3.95 | –
10 | CCCCOc1ccc(O)c(C(=O)/C=C/c2ccc(C)s2)c1 | 4.15 | 4.41 | 4.04 | –
11 | CCCCOc1ccc(OC)cc1C(=O)/C=C/c1ccc(C)s1 | 4.21 | 4.86 | 4.97 | pIC50 [4]: 4.55
12 | COc1ccc(C(=O)/C=C/c2ccc(C)s2)c(O)c1O | 4.27 | 4.68 | 4.97 | –
13 | CCCOc1ccc(OC)cc1C(=O)/C=C/c1ccc(C)s1 | 4.06 | 6.10 | 5.15 | –
14 | CCOc1ccc(OC)cc1C(=O)/C=C/c1ccc(C)s1 | 7.00 | 5.64 | 6.70 | Activity [9]: 11.627%; Activity [10]: 24.271%; Activity [5]: Active; Activity [6]: inactive; Activity [11]: 65.919%; Activity [12]: 28.384%; Activity [13]: 70.207%; Activity [14]: 2.104%; Activity [15]: 64.102%; pIC50 [7]: 3.88; Activity [16]: Active; pIC50 [8]: 5.20; Activity [17]: 5.698%; Activity [18]: 27.69%; pIC50 [19]: 6.40
